Here are results for seven compounds from patent US7507736B2, “Indol-2-yl-piperazin-1-yl-methanone derivatives” (Hoffmann-La Roche Inc., priority 2007, dated 2009).

pKi: −log10 of the molar value.

Broadly, the pKi is the Ki on a negative log10 scale, so that one unit is a factor of ten.

T1 sequence (Q9Y5N1 whole entry): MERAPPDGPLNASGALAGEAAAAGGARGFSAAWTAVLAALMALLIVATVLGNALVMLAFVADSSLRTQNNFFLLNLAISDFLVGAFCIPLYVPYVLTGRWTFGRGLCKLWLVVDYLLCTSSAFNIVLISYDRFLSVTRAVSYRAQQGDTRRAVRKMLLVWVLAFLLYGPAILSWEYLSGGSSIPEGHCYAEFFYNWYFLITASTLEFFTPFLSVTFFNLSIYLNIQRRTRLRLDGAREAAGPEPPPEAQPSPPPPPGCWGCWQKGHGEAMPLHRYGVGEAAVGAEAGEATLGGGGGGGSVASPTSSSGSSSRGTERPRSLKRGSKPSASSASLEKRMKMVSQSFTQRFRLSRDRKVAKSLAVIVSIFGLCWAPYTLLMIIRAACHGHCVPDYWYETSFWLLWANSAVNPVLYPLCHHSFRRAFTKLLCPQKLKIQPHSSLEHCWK

The test has as its target T1, human H3R (Homo sapiens, UniProt Q9Y5N1).
T1 construct: expressed in transfected cells; host or cells: CHO cells
Briefly: Binding assay with 3H-(R)α-methylhistamine (competition binding, H3R-CHO membranes). The conditions noted are these: competition vs 3H(R)α-methylhistamine (1 nM), membranes of the human H3R-CHO cell line; Ki calculated from IC50 by Cheng-Prusoff. As to the method:
Binding Assay with ^3H—(R)α-methylhistamine
Saturation binding experiments were performed using HR3-CHO membranes prepared as described in Takahashi, K, Tokita, S., Kotani, H. (2003) J. Pharmacol. Exp. Therapeutics 307, 213-218.
An appropriate amount of membrane (60 to 80 μg protein/well) was incubated with increasing concentrations of ^3H(R)α-Methylhistamine di-hydrochloride (0.10 to 10 nM). Non specific binding was determined using a 200 fold excess of cold (R)α-Methylhistamine dihydrobromide (500 nM final concentration). The incubation was carried out at room temperature (in deep-well plates shaking for three hours). The final volume in each well was 250 μl. The incubation was followed by rapid filtration on GF/B filters (pre-soaked with 100 μl of 0.5% PEI in Tris 50 mM shaking at 200 rpm for two hours). The filtration was made using a cell-harvester and the filter plates were then washed five times with ice cold washing buffer containing 0.5 M NaCl. After harvesting, the plates were dried at 55° C. for 60 min, then we added scintillation fluid (Microscint 40, 40 microl in each well) and the amount of radioactivity on the filter was determined in Packard top-counter after shaking the plates for two hours at 200 rpm at room temperature. • Binding Buffer: 50 mM Tris-HCl pH 7.4 and 5 mM MgCl2×6H2O pH 7.4. Washing Buffer: 50 mM Tris-HCl pH 7.4 and 5 mM MgCl2×6H2O and 0.5 M NaCl pH 7.4.
Indirect measurement of affinity of H3R inverse agonists: twelve increasing concentrations (ranging from 10 μM to 0.3 nM) of the selected compounds were always tested in competition binding experiments using membrane of the human H3R—CHO cell line. An appropriate amount of protein, e.g. approximately 500 cpm binding of RAMH at Kd, were incubated for 1 hour at room temperature in 250 μl final volume in 96-well plates in presence of ^3H(R)α-methylhistamine (1 nM final concentration=Kd). Non-specific binding was determined using a 200 fold excess of cold (R)α-methylhistamine dihydrobromide.
All compounds were tested at a single concentration in duplicate. […] The concentration at which 50% inhibition of the radioligand ^3H(R)α-methylhistamine is obtained (the IC50) is determined from the linear regression of a plot of the logarithm of the concentration versus percent inhibition measured for the different concentrations. Ki's were calculated from IC50 based on Cheng-Prusoff equation (Cheng, Y. Prusoff, W H (1973) Biochem Pharmacol 22, 3099-3108): Ki=IC50/[1+D/Kd] wherein D is the concentration of the radioligand and Kd is the binding constant for the radioligand binding to the receptor under the conditions used in the competition experiment.
For `CC(C)N1CCC(Oc2cc3cc(C(=O)N4CCN(S(=O)(=O)N(C)C)CC4)[nH]c3cc2Br)CC1` [Example 3, 4-[6-Bromo-5-(1-isopropyl-piperidin-4-yloxy)-1H-indole-2-carbonyl]-piperazine-1-sulfonic acid dimethylamide], the pKi is 8.37.

On to `CC(C)N1CCC(Oc2cc3cc(C(=O)N4CCN(S(C)(=O)=O)CC4)n(C(C)C)c3cc2Br)CC1` [Example 5, [6-Bromo-1-isopropyl-5-(1-isopropyl-piperidin-4-yloxy)-1H-indol-2-yl]-(4-methanesulfonyl-piperazin-1-yl)-methanone], for which the pKi is 8.47.

For `CC(C)N1CCC(Oc2cc3cc(C(=O)N4CCN(C(=O)C5CC5)CC4)[nH]c3cc2Br)CC1` [Example 18, [6-Bromo-5-(1-isopropyl-piperidin-4-yloxy)-1H-indol-2-yl]-(4-cyclopropanecarbonyl-piperazin-1-yl)-methanone], the pKi was 8.64.

As to `CC(=O)N1CCN(C(=O)c2cc3cc(OC4CCN(C(C)C)CC4)c(Br)cc3n2-c2ccnc(Cl)c2)CC1` [Example 28, 1-{4-[6-Bromo-1-(2-chloro-pyridin-4-yl)-5-(1-isopropyl-piperidin-4-yloxy)-1H-indole-2-carbonyl]-piperazin-1-yl}-ethanone], the pKi is 8.74.

As to `Cc1ccc(S(=O)(=O)N2CCN(C(=O)c3cc4cc(O[C@H]5C[C@H]6CC[C@@H](C5)N6C(C)C)ccc4n3C(C)C)CC2)cc1` [Example 44, [1-Isopropyl-5-((1S,3r,5R)-8-isopropyl-8-aza-bicyclo[3.2.1]oct-3-yloxy)-1H-indol-2-yl]-[4-(toluene-4-sulfonyl)-piperazin-1-yl]-methanone], the pKi is 8.62.

`CC(C)N1CCC(Oc2ccc3c(c2)cc(C(=O)N2CCN(S(C)(=O)=O)CC2)n3CC(F)F)CC1` [Example 55, [1-(2,2-Difluoro-ethyl)-5-(1-isopropyl-piperidin-4-yloxy)-1H-indol-2-yl]-(4-methanesulfonyl-piperazin-1-yl)-methanone]: the pKi is 8.17.

As for `COC(=O)N1CCN(C(=O)c2cc3cc(OC4CCN(C(C)C)CC4)ccc3n2C(C)C)CC1` [Example 73, 4-[1-Isopropyl-5-(1-isopropyl-piperidin-4-yloxy)-1H-indole-2-carbonyl]-piperazine-1-carboxylic acid methyl ester], the pKi is 7.98.
